Source: PMC12775434, “Ultra-large virtual screening unveils potent agonists of the neuromodulatory orphan receptor GPR139” (Nature Communications, 2025)
“And” between values parts separate entries of the source, which are not always exact repeats. Equal values may be shown once.

Biological target: T1, GPR139 (Gq activation) (Homo sapiens, UniProt Q6DWJ6)
T1 construct: expressed in transfected cells; host or cells: HEK293A (transient, Lipofectamine 2000)
T1 sequence (Q6DWJ6 1-353): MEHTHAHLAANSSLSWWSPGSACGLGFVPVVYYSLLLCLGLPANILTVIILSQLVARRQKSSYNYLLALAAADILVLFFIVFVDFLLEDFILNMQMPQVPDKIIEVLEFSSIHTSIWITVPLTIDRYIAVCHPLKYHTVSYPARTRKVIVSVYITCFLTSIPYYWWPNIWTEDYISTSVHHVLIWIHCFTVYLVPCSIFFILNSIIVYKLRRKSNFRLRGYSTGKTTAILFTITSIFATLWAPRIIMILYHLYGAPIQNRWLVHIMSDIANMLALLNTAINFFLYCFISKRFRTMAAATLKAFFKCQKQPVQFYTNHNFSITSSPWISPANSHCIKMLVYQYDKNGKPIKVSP
Assay: BRET G protein activation (dissociation) assay, Gq, HEK293A
Assay type: cell-based
Settings: for Emax: HEK293-A, normalized to JNJ-63533054 (JNJ(S)); for EC50: Supplementary Table 6; for G protein activation, Gq: individual replicates
Experimental: Primary screening and pharmacological characterization of compounds were performed using a CHO-K1 cell line that stably expresses human GPR139 (GPR139-CHOk1). The GPR139-CHOk1 cell line was kindly provided by H. Lundbeck A/S, Denmark[24]. GPR139-CHOk1 cells were grown in Ham’s F-12 Kaighn’s Modification Medium (ThermoFisher #21127030) supplemented with 10% dialyzed fetal bovine serum (US origin, ThermoFisher #26400044), 100 units/mL Penicillin-Streptomycin (ThermoFisher #15140122), and 1 mg/mL Geneticin (ThermoFisher #11811031). […] M1R-CHOk1 cells were purchased from The Missouri S&T cDNA Resource Center (#CEM100TN00). M1R-CHOk1 cells were grown in Ham’s F12 Medium (ThermoFisher #21765029) supplemented with 10% fetal bovine serum (Brazilian origin, ThermoFisher #10270106), 100 units/mL Penicillin-Streptomycin, and 0.25 mg/mL Geneticin. HEK293A cells transiently transfected with GPR139 were used for additional pharmacological assessment of signaling pathways activated by GPR139. HEK239A cells were generously provided by Dr. Asuka Inoue, Tohoku University, Japan. HEK293A cells were grown in Dulbecco’s Modified Eagle Medium (ThermoFisher #31966047) supplemented with 10% dialyzed fetal bovine serum and 100 units/mL Penicillin-Streptomycin. Cell lines were maintained at 37 °C in humidified incubator equilibrated with 5% CO2.
The G protein dissociation assay developed by the lab of Kirill A. Martemyanov was used to measure the coupling of multiple G proteins by GPR139[57]. The assay was performed as described previously with minor modifications. HEK293A cells were reverse transfected 20–24 h prior to assay. 50,000 cells were plated in each well of white opaque tissue culture treated 96-well plates (PerkinElmer #6005680) previously coated with poly-D-lysine. Transfection solutions were prepared as described, and 10 µL transfection solution was mixed with 100 µL cells in each well. The cells in each well were transfected with 18.9 ng GPR139, 6.3 ng Venus 1-155 Gγ2, 6.3 ng Venus 159-239 Gβ1, 6.3 ng masGRK3ct-NanoLuc and 12.6 ng Gαi2, 12.6 ng Gαi3, 12.6 ng GαoA, 12.6 ng Gαq or 25.2 ng Gα12 using 375 nL Lipofectamine 2000 Transfection Reagent. Transfections with Gαq and Gα12 contained 6.3 ng DNA of the active subunit S1 of pertussis toxin (PTX-S1). Each transfection was normalized to 150 ng total DNA with pcDNA3.1. The BRET biosensors were a kind gift from the Martemyanov lab. On the day of the experiment the cells were washed with HEPES buffer. Test compounds were diluted in HEPES buffer from DMSO stocks (final DMSO concentration of maximally 0.3%). NanoLuc Luciferase substrate NanoGlo—furimazine (Promega #N1120) was diluted 1000-fold (final) in HEPES buffer. NanoGlo and test compounds were added, and measurements were performed after 10 s for Gi3, 15 s for Gi2 and GoA, 20 s for Gq, and 90 s for G12—the timepoint where maximal signal occurred with each G protein, ensuring proper determination of the potency for the G protein coupling. Simultaneous dual emission was measured at 535 nm and 475 nm on LUMIstar Omega Microplate Reader (BMG Labtech) at room temperature. The BRET ratio of 535 nm/475 nm (Venus/NanoLuc), reflecting the dissociation of the G protein heterotrimer, was used to determine the G protein activation. The basal BRET ratio obtained with buffer condition was subtracted from the absolute BRET ratio at a given test compound concentration, and the responses were normalized to the one obtained with 10 µM JNJ-63533054 for the activation of Gi2.
Pharmacological data and statistical analyses were performed in GraphPad Prism v9–10 (Graphpad Software Inc., San Diego, CA), which are also specifically described in the figure and table legends. […]

Row | Emax [%] | EC50 [nM] | Structure (SMILES) | G protein activation, Gq (log [compound] M -4.5) | G protein activation, Gq (log [compound] M -5.0) | G protein activation, Gq (log [compound] M -5.5) | G protein activation, Gq (log [compound] M -6.0) | G protein activation, Gq (log [compound] M -6.5) | G protein activation, Gq (log [compound] M -7.0) | G protein activation, Gq (log [compound] M -7.5) | G protein activation, Gq (log [compound] M -8.0) | G protein activation, Gq (log [compound] M -4.5, listed as JNJ (S)) | G protein activation, Gq (log [compound] M -5.0, listed as JNJ (S)) | G protein activation, Gq (log [compound] M -5.5, listed as JNJ (S)) | G protein activation, Gq (log [compound] M -6.0, listed as JNJ (S)) | G protein activation, Gq (log [compound] M -6.5, listed as JNJ (S)) | G protein activation, Gq (log [compound] M -7.0, listed as JNJ (S)) | G protein activation, Gq (log [compound] M -7.5, listed as JNJ (S)) | G protein activation, Gq (log [compound] M -8.0, listed as JNJ (S))
1 | 21 ± 3 | 2510 | Cc1cscc1-c1nc(CC(=O)N[C@H](C)c2ccccc2)no1 [1.1(R)] | 17 % of JNJ-63533054 at Gi2 (2×) and 25 % of JNJ-63533054 at Gi2 | 16 % of JNJ-63533054 at Gi2 and 21 % of JNJ-63533054 at Gi2 and 15 % of JNJ-63533054 at Gi2 | 10 % of JNJ-63533054 at Gi2 and 12 % of JNJ-63533054 at Gi2 (2×) | 4.28 % of JNJ-63533054 at Gi2 and 5.63 % of JNJ-63533054 at Gi2 and 5 % of JNJ-63533054 at Gi2 | 0.0563 % of JNJ-63533054 at Gi2 and -0.806 % of JNJ-63533054 at Gi2 and 0.934 % of JNJ-63533054 at Gi2 | -1.52 % of JNJ-63533054 at Gi2 and -1.69 % of JNJ-63533054 at Gi2 and -0.279 % of JNJ-63533054 at Gi2 | -0.908 % of JNJ-63533054 at Gi2 and -3 % of JNJ-63533054 at Gi2 and -0.0719 % of JNJ-63533054 at Gi2 | -5.54 % of JNJ-63533054 at Gi2 and -3 % of JNJ-63533054 at Gi2 and 1.13 % of JNJ-63533054 at Gi2 |  |  |  |  |  |  |  | 
2 | 35 ± 3 | 200 | Cc1cscc1-c1nc(CC(=O)N[C@@H](C)c2ccccc2)no1 [1.1(S)] | 35 % of JNJ-63533054 at Gi2 and 45 % of JNJ-63533054 at Gi2 and 30 % of JNJ-63533054 at Gi2 | 36 % of JNJ-63533054 at Gi2 and 38 % of JNJ-63533054 at Gi2 and 28 % of JNJ-63533054 at Gi2 | 32 % of JNJ-63533054 at Gi2 and 38 % of JNJ-63533054 at Gi2 and 27 % of JNJ-63533054 at Gi2 | 30 % of JNJ-63533054 at Gi2 and 34 % of JNJ-63533054 at Gi2 and 26 % of JNJ-63533054 at Gi2 | 21 % of JNJ-63533054 at Gi2 and 30 % of JNJ-63533054 at Gi2 and 16 % of JNJ-63533054 at Gi2 | 11 % of JNJ-63533054 at Gi2 and 15 % of JNJ-63533054 at Gi2 and 8 % of JNJ-63533054 at Gi2 | 2.21 % of JNJ-63533054 at Gi2 and 3.62 % of JNJ-63533054 at Gi2 and 4 % of JNJ-63533054 at Gi2 | -2.13 % of JNJ-63533054 at Gi2 and -0.806 % of JNJ-63533054 at Gi2 and 3.47 % of JNJ-63533054 at Gi2 |  |  |  |  |  |  |  | 
3 | 22 ± 8 | 10000 | C[C@@H](NC(=O)CNC(=O)c1cccc(Cl)c1)c1ccccc1 [JNJ(R), reference compound] | 17 % of JNJ-63533054 at Gi2 and 24 % of JNJ-63533054 at Gi2 and 7.59 % of JNJ-63533054 at Gi2 | 12 % of JNJ-63533054 at Gi2 and 15 % of JNJ-63533054 at Gi2 and 4 % of JNJ-63533054 at Gi2 | 8 % of JNJ-63533054 at Gi2 and 7 % of JNJ-63533054 at Gi2 and -2.15 % of JNJ-63533054 at Gi2 | 6.62 % of JNJ-63533054 at Gi2 and 3 % of JNJ-63533054 at Gi2 and -1.3 % of JNJ-63533054 at Gi2 | 3.64 % of JNJ-63533054 at Gi2 and 0.578 % of JNJ-63533054 at Gi2 and -0.535 % of JNJ-63533054 at Gi2 | 0.442 % of JNJ-63533054 at Gi2 and -1.25 % of JNJ-63533054 at Gi2 and -2 % of JNJ-63533054 at Gi2 | 0.442 % of JNJ-63533054 at Gi2 and 0.122 % of JNJ-63533054 at Gi2 and 2.16 % of JNJ-63533054 at Gi2 | -2 % of JNJ-63533054 at Gi2 and -0.213 % of JNJ-63533054 at Gi2 and 1.37 % of JNJ-63533054 at Gi2 |  |  |  |  |  |  |  | 
4 | 42 ± 3 | 158 | CC(NC(=O)CNC(=O)c1cccc(Cl)c1)c1ccccc1 (stereo not shown) [JNJ-63533054, reference compound] |  |  |  |  |  |  |  |  | 40 % of JNJ-63533054 at Gi2 and 47 % of JNJ-63533054 at Gi2 and 36 % of JNJ-63533054 at Gi2 | 40 % of JNJ-63533054 at Gi2 and 47 % of JNJ-63533054 at Gi2 and 39 % of JNJ-63533054 at Gi2 | 42 % of JNJ-63533054 at Gi2 and 44 % of JNJ-63533054 at Gi2 and 32 % of JNJ-63533054 at Gi2 | 39 % of JNJ-63533054 at Gi2 and 42 % of JNJ-63533054 at Gi2 and 31 % of JNJ-63533054 at Gi2 | 29 % of JNJ-63533054 at Gi2 and 32 % of JNJ-63533054 at Gi2 and 23 % of JNJ-63533054 at Gi2 | 17 % of JNJ-63533054 at Gi2 (2×) and 9 % of JNJ-63533054 at Gi2 | 5.47 % of JNJ-63533054 at Gi2 and 7 % of JNJ-63533054 at Gi2 and 1.27 % of JNJ-63533054 at Gi2 | 1.82 % of JNJ-63533054 at Gi2 and 0.745 % of JNJ-63533054 at Gi2 and -0.2 % of JNJ-63533054 at Gi2
